Test results as given in patent US11541033B2, “Agent for preventing or treating Alzheimer's disease” (FUJIFILM Toyama Chemical Co., Ltd., priority 2017, dated 2023).

Legend:
Type in all cases: in vivo, human
[1] = tested on: mild to moderate AD patients; experiment: Test Example 1: phase II placebo-controlled trial, ADAS-cog change from baseline
Source text: (§1) Test Example 1 Multicenter Randomized Double-Blind Phase II Placebo-Controlled Trial for Assessing Effectiveness and Safety of Compound a in Mild to Moderate AD Patients
(§2) Patients were screened in a period from 42 days before treatment assignment to the assignment based on the following selection criteria. Patients matched (484 patients) were randomly divided into the following 3 groups and the trial was started.
(§3) • Patients who were probable AD and are 55 years old or older and 85 years old or younger at the time of obtaining consent of screening. • Patients with an MMSE score of 12 to 22 at the time of screening • Patients with a Modified Hachinski Ischemia Scale score of 4 or less • Patients who have been treated with a donepezil hydrochloride or rivastigmine transdermal system for at least 4 months before the baseline and with a stable dose thereof for 3 months before the baseline. • In the case of patients who have received memantine in addition to being treated with a donepezil hydrochloride or rivastigmine transdermal system, patients who have been treated with memantine for at least 4 months before the baseline and with a stable dose thereof for 3 months before the baseline. • Patients whose brain MRI or CT results match AD at the time of screening Organization of Groups: (1) High dose group: 224 mg of a test compound (160 mg in terms of Compound A) was orally administered once a day for 4 weeks and then 448 mg of a test compound (320 mg in terms of Compound A) was orally administered once a day for 48 weeks (158 patients) (2) Low dose group: 224 mg of a test compound (160 mg in terms of Compound A) was orally administered once a day for 52 weeks (166 patients) (3) Placebo group: placebo was orally administered once a day for 52 weeks (158 patients) Method of assessment: (1) ADAS-cog
(§4) The ADAS-cog score of the subject was evaluated at the baseline (before administration of investigational drug on the first day of administration) and after 52 weeks and the cognitive function was assessed based on the change from the baseline.
(§5) Changes in the ADAS-cog score and the ADCS-ADL score after 52 weeks from the baseline were compared between the high dose group and the placebo group, and between the low dose group and the placebo group based on the Mixed-effect Models for Repeated Measures (MMRM) with a significance level of 5%. For models, fixed effects included the treatment groups and time, while covariates included age, the baseline of ADAS-cog or ADCS-ADL, the baseline of MMSE and ApoE4 genotype (positive/negative). The interaction between time and the treatment groups and the interaction between the baseline of ADAS-cog and time were also included.

[2] = tested on: mild to moderate AD patients; experiment: Test Example 1: phase II placebo-controlled trial, ADCS-ADL change from baseline
Source text: as §1, §2, §3
(§6) The ADCS-ADL score of the subject was evaluated at the baseline (before administration of investigational drug on the first day of administration) and after 52 weeks and the level of impairment was assessed based on the change from the baseline.
as §5

[3] = tested on: mild to moderate AD patients; experiment: Test Example 2: early phase II placebo-controlled trial, ADAS-cog change from baseline; conditions: for Change in ADAS-cog from baseline at week 52, least square means (95% confidence interval) / Change in ADAS-cog from baseline at week 52, difference from placebo group (95% confidence interval): MMSE 22 or less at screening
Source text: (§7) Test Example 2 Multicenter Randomized Double-Blind Early Phase II Placebo-Controlled Trial for Assessing Effectiveness and Safety of Compound a in Mild to Moderate AD Patients
(§8) Patients were screened in a period from 28 days before treatment assignment to the assignment based on the following selection criteria. Patients matched (373 patients) were randomly divided into the following 2 groups and the trial was started.
(§9) • Patients who were probable AD and over or 50 years old or older and 90 years old or younger at the time of obtaining consent of screening. • Patients with an MMSE score of 15 to 24 at the time of screening • Patients with a Modified Hachinski Ischemia Scale score of 4 or less • Patients who have been treated with a donepezil hydrochloride for at least 6 months before the baseline and with a stable dose thereof for 3 months before the baseline. • Patients whose brain MRI or CT results match AD at the time of screening Organization of Groups: (1) Active drug group: 224 mg of a test compound (160 mg in terms of Compound A) was orally administered once a day for 52 weeks (176 patients) (2) Placebo group: placebo was orally administered once a day for 52 weeks (178 patients) Method of assessment: (1) ADAS-cog
as §4
(§10) Changes in the ADAS-cog score and the ADCS-ADL score after 52 weeks from the baseline were compared between the high dose group and the placebo group, and between the low dose group and the placebo group based on MMRM with a significance level of 5%. For models, fixed effects included the treatment groups and time, while covariates included the baseline of ADAS-cog or ADCS-ADL and the baseline of MMSE. The interaction between time and the treatment groups and the interaction between the baseline of ADAS-cog and time were also included. For the period from clinical diagnosis, the first day of administration of donepezil hydrochloride which was combined with Compound A was defined as the time of clinical diagnosis. Furthermore, to match the conditions with those of Test Example 1, the subject was patients with an MMSE score of 22 or less at the time of screening.

[4] = tested on: mild to moderate AD patients; experiment: Test Example 2: early phase II placebo-controlled trial, ADCS-ADL change from baseline; conditions: for Change in ADCS-ADL from baseline at week 52, least square means (95% confidence interval) / Change in ADCS-ADL from baseline at week 52, difference from placebo group (95% confidence interval): MMSE 22 or less at screening
Source text: as §7, §8, §9, §6, §10

[5] = high dose group, more than 2.6 years from clinical diagnosis
[6] = high dose group, within 2.8 years from clinical diagnosis
[7] = high dose group, within 3 years from clinical diagnosis
[8] = high dose group, within 3.2 years from clinical diagnosis
[9] = high dose group, within 3.4 years from clinical diagnosis
[10] = high dose group, within 3.6 years from clinical diagnosis
[11] = high dose group, within 3.8 years from clinical diagnosis
[12] = high dose group, within 4.0 years from clinical diagnosis
[13] = high dose group, within 5.0 years from clinical diagnosis
[14] = high dose group, within 6.0 years from clinical diagnosis
[15] = low dose group (160 mg in terms of Compound A, oral once a day, 52 weeks), within 2.6 years from clinical diagnosis
[16] = low dose group (160 mg), more than 2.6 years from clinical diagnosis
[17] = low dose group (160 mg), total (all periods from clinical diagnosis)
[18] = low dose group (160 mg), within 2.6 years from clinical diagnosis
[19] = high dose group, total (all periods from clinical diagnosis)
[20] = low dose group (160 mg), total (all periods)

OC1CN(CCCOCCc2ccc3sccc3c2)C1 [Compound A, 1-(3-(2-(1-benzothiophen-5-yl)ethoxy)propyl)azetidin-3-ol]
Changes in ADAS-cog from the baseline at week 52, Compound A group versus placebo group (in words) ([1]; Test Example 1, all subject patients): no statistically significant difference
Changes in ADAS-cog from the baseline at week 52, Compound A high dose group versus placebo group (in words) ([1]; Test Example 1, high dose group, patients within 2.6 years from clinical diagnosis of AD): statistically significant difference
Difference in ADAS-cog change between high dose group and placebo group, compared by periods from clinical diagnosis (in words) ([1]; Test Example 1, high dose group, periods 2.5 to 6 years from clinical diagnosis of AD): larger in patients whose period was shorter
Change in the ADAS-cog score, Compound A low dose group versus placebo group (in words) ([1]; Test Example 1, low dose group (160 mg), week 52): tended to be smaller than that in the placebo group
Change in ADAS-cog from baseline at week 52, least square means (95% confidence interval) ([1]; high dose group (160 mg 4 weeks then 320 mg 48 weeks in terms of Compound A, oral once a day), within 2.5 years from clinical diagnosis): 5.6
Change in ADAS-cog from baseline at week 52, difference from placebo group (95% confidence interval) ([1]; high dose group (160 mg 4 weeks then 320 mg 48 weeks, oral once a day), within 2.5 years from clinical diagnosis): −3.3
Change in ADAS-cog from baseline at week 52, difference from placebo group (95% confidence interval) [1, 5]: 1.8(−1.0, 4.6)
Change in ADAS-cog from baseline at week 52, least square means (95% confidence interval) [1, 5]: 8.4(6.3, 10.5)
Change in ADAS-cog from baseline at week 52, difference from placebo group (95% confidence interval) [1, 6]: −2.5
Change in ADAS-cog from baseline at week 52, least square means (95% confidence interval) [1, 6]: 6.2
Change in ADAS-cog from baseline at week 52, difference from placebo group (95% confidence interval) [1, 7]: −2.2
Change in ADAS-cog from baseline at week 52, least square means (95% confidence interval) [1, 7]: 6.1
Change in ADAS-cog from baseline at week 52, difference from placebo group (95% confidence interval) [1, 8]: −2.0
Change in ADAS-cog from baseline at week 52, least square means (95% confidence interval) [1, 8]: 6.4
Change in ADAS-cog from baseline at week 52, difference from placebo group (95% confidence interval) [1, 9]: −1.8
Change in ADAS-cog from baseline at week 52, least square means (95% confidence interval) [1, 9]: 6.4
Change in ADAS-cog from baseline at week 52, difference from placebo group (95% confidence interval) [1, 10]: −1.8
Change in ADAS-cog from baseline at week 52, least square means (95% confidence interval) [1, 10]: 6.7
Change in ADAS-cog from baseline at week 52, difference from placebo group (95% confidence interval) [1, 11]: −2.1
Change in ADAS-cog from baseline at week 52, least square means (95% confidence interval) [1, 11]: 6.5
Change in ADAS-cog from baseline at week 52, difference from placebo group (95% confidence interval) [1, 12]: −1.7
Change in ADAS-cog from baseline at week 52, least square means (95% confidence interval) [1, 12]: 6.6
Change in ADAS-cog from baseline at week 52, difference from placebo group (95% confidence interval) [1, 13]: −1.9
Change in ADAS-cog from baseline at week 52, least square means (95% confidence interval) [1, 13]: 6.5
Change in ADAS-cog from baseline at week 52, difference from placebo group (95% confidence interval) [1, 14]: −0.9
Change in ADAS-cog from baseline at week 52, least square means (95% confidence interval) [1, 14]: 7.2
Change in ADAS-cog from baseline at week 52, least square means (95% confidence interval) [1, 15]: 8.1 (6.0, 10.2)
Change in ADAS-cog from baseline at week 52, difference from placebo group (95% confidence interval) [1, 16]: 0.1 (−2.5, 2.8)
Change in ADAS-cog from baseline at week 52, least square means (95% confidence interval) [1, 16]: 6.8 (4.8, 8.7)
Change in ADAS-cog from baseline at week 52, difference from placebo group (95% confidence interval) [1, 17]: −0.5 (−2.4, 1.4)
Change in ADAS-cog from baseline at week 52, least square means (95% confidence interval) [1, 17]: 7.4 (6.0, 8.9)
Change in ADAS-cog from baseline at week 52, difference from placebo group (95% confidence interval) [1, 18]: −0.9 (−3.6, 1.8)
Reduction in ADCS-ADL from the baseline at week 52 (in words) ([2]; Test Example 1, high dose group): tended to be suppressed
Tendency to suppress reduction in ADCS-ADL, patients within 2.6 years versus all patients (in words) ([2]; Test Example 1, high dose group, week 52): more remarkable
Change in ADCS-ADL from baseline at week 52, least square means (95% confidence interval) ([2]; high dose group (160 mg 4 weeks then 320 mg 48 weeks, oral once a day), within 2.6 years from clinical diagnosis): −8.6(−11.2, −5.9)
Change in ADCS-ADL from baseline at week 52, difference from placebo group (95% confidence interval) [2, 5]: −0.9 (−4.7, 2.8)
Change in ADCS-ADL from baseline at week 52, least square means (95% confidence interval) [2, 5]: −11.6(−14.5, −8.8)
Change in ADCS-ADL from baseline at week 52, difference from placebo group (95% confidence interval) [2, 19]: 1.2(−1.3, 3.8)
Change in ADCS-ADL from baseline at week 52, least square means (95% confidence interval) [2, 19]: −10.1(−12.0, −8.1)
Change in ADCS-ADL from baseline at week 52, difference from placebo group (95% confidence interval) ([2]; high dose group, within 2.6 years from clinical diagnosis): 3.1(−0.4, 6.6)
Change in ADCS-ADL from baseline at week 52, least square means (95% confidence interval) [2, 15]: −11.7(−14.5, −9.0)
Change in ADCS-ADL from baseline at week 52, difference from placebo group (95% confidence interval) [2, 16]: 0.3(−3.2, 3.8)
Change in ADCS-ADL from baseline at week 52, least square means (95% confidence interval) [2, 16]: −10.4(−13.0, −7.8)
Change in ADCS-ADL from baseline at week 52, difference from placebo group (95% confidence interval) [2, 17]: 0.2(−2.3, 2.7)
Change in ADCS-ADL from baseline at week 52, least square means (95% confidence interval) [2, 17]: −11.0(−13.0, −9.1)
Change in ADCS-ADL from baseline at week 52, difference from placebo group (95% confidence interval) [2, 18]: 0.0(−3.6, 3.6)
Changes in ADAS-cog from the baseline at week 52, Compound A group versus placebo group (in words) ([3]; Test Example 2, all subject patients): no statistically significant difference
Changes in ADAS-cog from the baseline at week 52, Compound A low dose group versus placebo group (in words) ([3]; Test Example 2, low dose group (160 mg), within 2.6 years from clinical diagnosis of AD and MMSE score of 22 or less at screening): statistically significant difference
Change in ADAS-cog from baseline at week 52, least square means (95% confidence interval) [3, 15]: 1.3(−0.3, 4.7)
Change in ADAS-cog from baseline at week 52, difference from placebo group (95% confidence interval) [3, 16]: 1.7(−1.3, 4.7)
Change in ADAS-cog from baseline at week 52, least square means (95% confidence interval) [3, 16]: 3.0(0.8, 5.3)
Change in ADAS-cog from baseline at week 52, difference from placebo group (95% confidence interval) [3, 20]: −1.2(−3.0, 0.5)
Change in ADAS-cog from baseline at week 52, least square means (95% confidence interval) [3, 20]: 1.9(0.5, 3.2)
Change in ADAS-cog from baseline at week 52, difference from placebo group (95% confidence interval) [3, 18]: −2.6(−4.8, −0.5)
Reduction in ADCS-ADL from the baseline at week 52 (in words) ([4]; Test Example 2, low dose group (160 mg)): tended to be suppressed
Tendency to suppress reduction in ADCS-ADL, patients within 2.6 years versus all patients (in words) ([4]; Test Example 2, low dose group (160 mg), week 52): more remarkable
Change in ADCS-ADL from baseline at week 52, least square means (95% confidence interval) [4, 15]: −5.5(−7.8, −3.2)
Change in ADCS-ADL from baseline at week 52, difference from placebo group (95% confidence interval) [4, 16]: −3.5(−7.8, 0.8)
Change in ADCS-ADL from baseline at week 52, least square means (95% confidence interval) [4, 16]: −7.5(−10.8, −4.3)
Change in ADCS-ADL from baseline at week 52, difference from placebo group (95% confidence interval) [4, 20]: 0.5(−2.0, 3.0)
Change in ADCS-ADL from baseline at week 52, least square means (95% confidence interval) [4, 20]: −6.2(−8,1, −4.3)
Change in ADCS-ADL from baseline at week 52, difference from placebo group (95% confidence interval) [4, 18]: 2.6(−0.5, 5.7)
